These results are taken from patent US20240400717A1, “Antibody Binding to CHI3L1 for Treating Cancer” (National Cheng Kung University, priority 2021, published 2024).

The data set has as its system MiaPaCa cells. Briefly: MiaPaCa orthotopic NOD-SCID mice model.
The mark [1] stands for this setting: mAb 5 mg/kg i.v., gemcitabine 50 mg/kg i.p.

Procedure: Specifically, experimental design of tumor growth inhibition in vivo. MiaPaCa cells (5×10^6) were injected into pancreas of NOD-SCID mice at Day 0. […] Mice were sacrificed on day 34. […] Since fibrosis and angiogenesis are two major issues during tumor progression, we compared the fibrosis and angiogenesis level within each groups.

`Nc1ccn([C@@H]2O[C@H](CO)[C@@H](O)C2(F)F)c(=O)n1` [gemcitabine, reference compound]: the “level of CHI3L1 in intratumoral region and plasma” value (end of experiment) is recorded as “lower than IgG control group”. Besides, under setting [1], the “angiogenesis indicated by CD31 expression” value was “decreased in every treatment groups” and the body weight result is given as “without significant weight loss”. Moreover, the tumor size result (mAb 5 mg/kg i.v., gemcitabine 50 mg/kg i.p., Day 7, 14, 21, 28, sacrificed day 34) is “smaller than IgG control group”.
